This is an account of results in US9079891B2, “Compounds that modulate intracellular calcium” (CALCIMEDICA, INC., priority 2010, dated 2015).

For test [1], the target named is T1, recombinant human STIM1 and Orai1 (Homo sapiens, UniProt Q96D31).
T1 construct: c-myc (C); expressed in transfected cells; host or cells: HEK-293 cells stably expressing human STIM1 and human Orai1
Put plainly: Fluorescence-based assay of store-operated calcium entry in Orai1/STIM1 stable cells (FLIPR). Conditions: HEK-293 cells stably expressing human Orai1/STIM1; Fluo-4; Peak-Basal signal; read-out: FLIPR_CRAC: 9 point CRC: O1S1_JR251: IC50: Peak_over_Basal. Format: cell-based. As to the method: A. Fluorescence-Based Assay of Store-Operated Calcium Entry in Orai1/Stim1 Stable Cells.
Cells stably expressing recombinant human STIM1 and Orai1 are generated by transfecting a human Orai1 expression plasmid (pcDNA3.1-Orai1-cmyc) into HEK-293 cells stably overexpressing human STIM1 (Roos et al. 2005 JCB 169(3): 435-445). Colonies of cells stably expressing both STIM1 and Orai1 proteins are selected and then subcloned by limiting dilution. Cells were cultured at 37° C./6% CO2 in complete medium with 10% FBS and appropriate selection markers.
The day prior to performing the assay Orai1/STIM1 stable cells are plated in 50 μL of complete medium at 90-95% confluence in a 384 well plate. Cells are grown at 37° C./6% CO2 overnight. On the day of the assay, 1.5 μM fluo-4-AM (Invitrogen) in complete medium is added to the cells, which are then incubated for 1 hour at RT. Cells are washed once in Ca^2+-free HBSS (Hank's buffered saline solution) and 35 μl of Ca^2+-free HBSS is added to each well. Test compounds are added to wells in a 10 μL Ca^2+-free HBSS solution, prepared at 4.5× the desired final concentration, and incubated for 30 minutes at RT. The initial baseline fluorescence signal is then measured with a FLIPR^384 (Molecular Devices) plate reader. Calcium entry is initiated by adding 5 μl of 10×CaCl2 (10 mM) in HBSS, and changes in cellular fluorescence are measured with the FLIPR^384 plate reader. In each well, the magnitude of the fluorescence signal as a result of calcium entry into the cell is determined by calculating the difference between the peak fluorescence signal measured after calcium addition and the initial baseline fluorescence signal (designated Peak-Basal). IC50 values are typically calculated as the concentration that inhibited 50% of the Peak-Basal signal.

Test [2] concerns secreted IL-2 in Jurkat T cells. Put plainly: In vitro assay of cytokine (IL-2) release from T cells. The format is cell-based. The conditions noted are these: Homo sapiens; Jurkat E6-1 cells; PHA/TPA stimulation 20 hours; IL-2 ELISA. As to the method:
In Vitro Assay of Cytokine Release from T Cells
Jurkat E6-1 cells are obtained from ATCC and maintained in complete medium with 10% FBS at 37° C./6% CO2.
The day prior to performing the assay, Jurkat T cells are plated in 90 μL of HBSS Buffer with 1.8 mM CaCl2 and 1.75% fetal bovine serum (FBS) in a 96 well plate at a density of 1.5×10^5 cells/well for 3 hours. 10 μl of 10× test compound prepared in HBSS is added and incubated for 10 minutes at 37° C./6% CO2. Cells are stimulated by the addition of 10 μl of 11×PHA/TPA (27.5 μg/mL PHA/880 nM TPA) and incubated at 37° C./6% CO2 for 20 hours. On the following day, the supernatants are collected and assayed for IL-2 levels by ELISA according to the manufacturer's protocols. The IC50 value is calculated as the concentration at which 50% of secreted IL-2 in vehicle treated cells is inhibited.

Test [3] deals with RBL-2H3 cells. Put plainly: Fluorescence-based assay of store-operated calcium entry in RBL-2H3 cells (FLIPR, thapsigargin). The format is cell-based, rat. The conditions noted are these: Rattus norvegicus, Fluo-4, Upslope 0-7 sec, read-out: FLIPR_CRAC: 9 pt CRC - Fluo4_TG-D: RBL-2H3: IC50: Upslope 0-7 sec. As to the method: B. Fluorescence-Based Assay of Store-Operated Calcium Entry in RBL-2H3 Cells.
RBL-2H3 cells are obtained from ATCC and maintained in complete medium with 10% FBS at 37° C./6% CO2.
The day prior to performing the assay, RBL-2H3 cells are plated in 50 μl of complete medium in a 384 well plate. Cells are grown at 37° C./6% CO2 overnight and grow to 50-60% confluence by the next day. On the assay day, 1.5 μM Fluo-4-AM dye (Invitrogen) in complete medium is added and incubated for 1 hour at RT. Cells are washed twice in Ca^2+-free HBSS buffer and 35 μl Ca^2+-free HBSS buffer is added to each well. 10 μl of a test compound prepared in a Ca^2+-free HBSS solution at 4.5× of the desired concentration is added to a well and incubated for 5 minutes at RT. 10 μl of thapsigargin prepared in a Ca^2+-free HBSS solution at 5.5× of the desired concentration (5.5 uM) is added to each well and incubated for an additional 25 minutes. The initial baseline fluorescence signal is measured with a FLIPR^384 (Molecular Devices) plate reader. 5 μl of 12× calcium in HBSS (12 mM) is added and changes in cellular fluorescence are measured with the FLIPR^384 plate reader. In each well, the change in the fluorescent signal as a function of time due to calcium entry into the cell is determined by calculating the difference between the fluorescent signal measured 7 seconds after calcium addition and the initial baseline fluorescence signal at time zero (t=0). This parameter is designated Upslope. The IC50 value is calculated as the concentration at which 50% of the Upslope is inhibited.

A value given as a limit tells only on which side of the number the result lay.

T1 sequence (Q96D31 whole entry): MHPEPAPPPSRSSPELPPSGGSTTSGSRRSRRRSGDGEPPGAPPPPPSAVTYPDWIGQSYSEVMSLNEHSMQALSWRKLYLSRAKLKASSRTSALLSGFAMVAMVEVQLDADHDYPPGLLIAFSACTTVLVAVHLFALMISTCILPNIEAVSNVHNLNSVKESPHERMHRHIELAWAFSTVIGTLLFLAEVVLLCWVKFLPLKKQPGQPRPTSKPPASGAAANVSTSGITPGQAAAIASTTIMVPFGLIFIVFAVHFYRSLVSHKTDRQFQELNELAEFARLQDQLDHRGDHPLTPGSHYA

As to `Cn1nc(-c2ccco2)cc1-c1ccc(C(=O)Nc2c(F)cccc2F)s1` [Example 56, N-(2,6-difluorophenyl)[5-(3-(2-furyl)-1-methylpyrazol-5-yl](2-thienyl)]carboxamide], the IC50 (in general, the point on the concentration scale where inhibition reaches its midpoint) in test [1] was below 600 nM; in test [2], below 50 nM; in test [3] it was below 600 nM.
In the case of `Cn1nc(-c2ccco2)cc1-c1ccc(C(=O)Nc2ccccc2F)s1` [Example 61], the IC50 in test [1] was below 600 nM; in test [2], below 50 nM; in test [3] it was below 600 nM.
For the molecule `Cn1nc(C(F)(F)F)cc1-c1ccc(NC(=O)c2c(F)cccc2F)s1` [Example 74, (2,6-difluorophenyl)-N-{5-[1-methyl-3-(trifluoromethyl)pyrazol-5-yl](2-thienyl)}carboxamide], the IC50 was below 600 nM in test [1], below 50 nM in test [2] and below 600 nM in test [3].
In the case of `Cc1cc2c(cc1-c1cnc(NC(=O)c3ccncc3F)s1)OC(F)(F)O2` [Example 82], the IC50 is below 600 nM in test [1], below 50 nM in test [2] and below 600 nM in test [3].
As to `Cc1cc2c(cc1-c1cnc(NC(=O)c3c(F)cccc3F)s1)OC(F)(F)O2` [Example 83, (2,6-difluorophenyl)-N-[5-(2,2-difluoro-6-methylbenzo[d]1,3-dioxolen-5-yl)(1,3-thiazol-2-yl)]carboxamide], the results for the IC50 in test [1], in test [2] and in test [3] were above 1200 nM, below 50 nM and below 600 nM, respectively.
For `Cc1cc2c(cc1-c1cnc(NC(=O)c3ccccc3F)s1)OC(F)(F)O2` [Example 84], the values for the IC50 in test [1], in test [2] and in test [3] were below 600 nM, below 50 nM and below 600 nM, respectively.
